In publication PMC8452096 (bioRxiv, 2021):

Key:
[1] = Plasma pharmacokinetics after oral administration in uninfected BALB/c mice; type: in vivo
[2] = molar basis, compared with RDV; cited from earlier work
SARS-CoV-2 nLUC = experiment: microbe, parasite or virus in culture; type: cell-based; details: Severe acute respiratory syndrome coronavirus 2
SARS-CoV-2 Fluc = experiment: microbe, parasite or virus in culture; type: cell-based; details: Severe acute respiratory syndrome coronavirus 2, NHBE, in Homo sapiens, 24 h
WT SARS-CoV-2 = type: cell-based

Row | Compound | maximal plasma concentrations (Cmax) and exposures (AUC0–24h) ([1]; GS-441524 after single oral GS-621763, 5 vs 20 mg/kg) | efficiency at generating lung triphosphate, less than RDV [2] | EC50 (SARS-CoV-2 nLUC) [nM] | EC50 (SARS-CoV-2 Fluc) [nM] | infectious virus production / viral titers (WT SARS-CoV-2) | NHC plasma exposures ([1]; after oral MPV 30 mg/kg or 100 mg/kg BID, BALB/c mice)
1 | N#C[C@@]1(c2ccc3c(N)ncnn23)O[C@H](CO)[C@@H](O)[C@H]1O [GS-441524] | Dose proportional increases | at least 10 fold | 3300 | 2450 | significant and dose-dependent reduction in viral titers | –
2 | O=c1nc(NO)ccn1[C@@H]1O[C@H](CO)[C@@H](O)[C@H]1O [NHC, β-D-N4-hydroxycytidine] | – | – | – | – | – | dose proportional increases
3 | CCC(CC)COC(=O)[C@H](C)N[P@](=O)(OC[C@H]1O[C@@](C#N)(c2ccc3c(N)ncnn23)[C@H](O)[C@@H]1O)Oc1ccccc1 [RDV, remdesivir] | – | – | 280 | 37.1 | significant and dose-dependent reduction in viral titers | –
